Entries after “also recorded” stand apart in the source; their conditions may differ.
Legend:
[1] = tested on: P. falciparum (chloroquine-resistant); test: P. falciparum culture growth by [3H]-hypoxanthine uptake, drugs singly or in combination, with isobolographic analysis; format: cell-based, Plasmodium falciparum; conditions: 48 hrs, starting parasitemia 2-3%
Description: (§1) Appropriate solvent controls were used. Parasite growth was measured by staining the slides with Giemsa as well as [α3H]-hypoxanthine uptake. In the latter case, the cultured cells were lysed with water and the parasites collected by filtration, washed and radioactivity measured. Adult f mice (40-50 g) were infected with P. berghei by intraperitoneal injection of an aliquot of infected mouse blood. After 24 hr, the animals were given a single injection of different amounts of artemisinin derivative at a dose of 5 mg/mouse. The oral feeding was repeated after 24 hr and 48 hr. Parasite count was measured in blood before and drug therapy at different time intervals using Giemsa to stain the slides. All the infected mice die in a span of 5-8 days and the efficacy of the drugs given singly or in combination was measured in terms of parasite clearance in blood and protection against mortality.
The potency of the combination was assessed by isobolographic characterization of the drug interactions. The additive or synergistic or antagonistic effects were assessed based on the following interaction index:
When I is less than 1 the drugs interact synergistically and the isobol bows below the line of additivity. When I is equal to 1 the isobol is coincident with the line of additivity and the interaction is additive. When I is greater than 1, the isobol bows above the line of additivity and the interaction is antagonistic. […] The interaction between curcumin and artemisinin is thus clearly synergistic.
P. falciparum (chloroquine-resistant) was maintained in culture using human O+ve red cells and serum by the candle jar method as per standard protocols. […] Appropriate solvent controls were used. Parasite growth was quantitatively measured using 3[H]-hypoxanthine uptake. The cultured cells were incubated for 48 hrs and then the parasites were collected by filtration after lysis of the cells. The filters were extensively washed and then radioactivity measured. […] The potency of the combination was assessed by isobolographic characterization of drug interactions.
The T values ranged from 0.7 to 0.85 in all combinations. The isobol bowling below the line of additivity and the T values being less than 1 indicate that the curcumin-artemisinin. Interaction is clearly synergistic

P. berghei [2] = test: Protection of mice infected with P. berghei (mortality, parasite count in blood); format: in vivo
Description: as §1
Striking results were obtained in terms of parasite clearance and protection against mortality. The experiments were carried out with 6 mice per batch and the experiments were repeated at least 3 times. The results presented in FIG. 3 represent those obtained in a typical experiment. The results obtained in the 2nd and 3rd experiments are identical in pattern. The average pattern obtained with the infected animals is as follows. All the infected animals die in about 5-8 days. […] A single injection of artemisinin derivative (α,β-arteether) at a dose of 500 μg/mouse results in death of animals in 10-12 days. […] Treatment with a single injection α,β-arteether at 750 μg and 1.5 mg results in death of animals between 20-26 days and 32-38 days respectively. […] The animals continue to live normally for several months. This picture is also supported by parasite load in blood (FIG. 4).
Methodology; Mice (−40 g) were infected ˜ with P. berghei by intraperitoneal infection. After 24 hrs, the animals received a single injection of different concentrations of a derivative of artemisinin (α,β-arteether) (500˜g to 1.5 mg) by the intramuscular route. […] The oral treatment was repeated after 24 hr and 48 hr. Blood smears were made from the mice at different day intervals and parasites stained with Giemsa. […] The experiments were repeated thrice with 6 mice in each group.

P. falciparum = conditions: culture of P. falciparum; cited from earlier work
P. berghei [3] = conditions: mice infected with P. berghei; cited from earlier work

| SMILES | IC50 [1] | IC50 ([1]; Plasmodium falciparum) | death of animals (P. berghei [2]; curcumin alone, 3 day oral treatment (5 mg), untreated infected mice die in 5-8 days) | antimalarial activity (P. falciparum) | antimalarial activity (P. berghei [3]) | death of animals (P. berghei [2]; single injection 750 μg per mouse) | death of animals (P. berghei [2]; single injection 1.5 mg per mouse) | parasite load in blood (P. berghei [2]; single injection, Giemsa stained blood smears) |
| --- | --- | --- | --- | --- | --- | --- | --- | --- |
| C[C@@H]1CC[C@H]2[C@@H](C)C(=O)O[C@@H]3O[C@@]4(C)CC[C@@H]1[C@]32OO4 [artemisinin] | ~0.055 µM | 0.045 to 0.055 µM | – | – | – | – | – | – |
| COc1cc(/C=C/C(=O)CC(=O)/C=C/c2ccc(O)c(OC)c2)ccc1O [curcumin] | ~15 µM | 15 to 17 µM | 10 to 12 days | has antimalarial activity | has antimalarial activity | – | – | – |
| CCO[C@H]1O[C@@H]2O[C@@]3(C)CC[C@H]4[C@H](C)CC[C@@H]([C@H]1C)[C@@]24OO3 [α,β-arteether] | – | – | – | – | – | 20 to 26 days | 32 to 38 days | clears the parasites in blood initially, but there is recrudescence; also recorded: clears parasites in blood initially, but there was recrudescence |
